This passage reports inhibition results from ChEMBL document CHEMBL3627608, “Crystal structures of human RIP2 kinase catalytic domain complexed with ATP-competitive inhibitors: Foundations for understanding inhibitor selectivity” (Bioorg Med Chem, 2015).

Test [1] concerns the target Ephrin type-A receptor 2 (Homo sapiens) (UniProt P29317). Description: Inhibition of EPHA2 (unknown origin) at 10 uM after 120 mins P33 radiolabeled kinase activity assay.
Test [2] concerns the target T1, Rhodopsin kinase GRK1 (Homo sapiens) (UniProt Q15835).
T1 sequence (whole entry): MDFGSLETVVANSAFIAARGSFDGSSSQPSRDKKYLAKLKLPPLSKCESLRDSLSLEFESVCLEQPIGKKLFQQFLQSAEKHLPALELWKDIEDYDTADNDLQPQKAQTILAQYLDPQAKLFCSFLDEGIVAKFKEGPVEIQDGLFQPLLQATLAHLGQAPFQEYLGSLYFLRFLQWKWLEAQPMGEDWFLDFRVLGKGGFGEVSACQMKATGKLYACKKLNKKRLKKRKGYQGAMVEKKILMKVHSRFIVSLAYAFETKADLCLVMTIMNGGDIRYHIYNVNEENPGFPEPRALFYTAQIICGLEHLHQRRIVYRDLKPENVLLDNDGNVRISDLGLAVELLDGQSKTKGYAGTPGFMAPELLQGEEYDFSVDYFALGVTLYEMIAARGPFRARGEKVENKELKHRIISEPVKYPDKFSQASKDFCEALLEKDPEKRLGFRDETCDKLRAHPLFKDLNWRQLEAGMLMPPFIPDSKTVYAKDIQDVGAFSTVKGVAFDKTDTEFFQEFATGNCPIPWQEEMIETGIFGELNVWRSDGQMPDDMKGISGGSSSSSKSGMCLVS
Description: Inhibition of GRK1 (unknown origin) at 10 uM after 120 mins P33 radiolabeled kinase activity assay.

Test [3] addresses T2, Rhodopsin kinase GRK7 (Homo sapiens) (UniProt Q8WTQ7).
T2 sequence (whole entry): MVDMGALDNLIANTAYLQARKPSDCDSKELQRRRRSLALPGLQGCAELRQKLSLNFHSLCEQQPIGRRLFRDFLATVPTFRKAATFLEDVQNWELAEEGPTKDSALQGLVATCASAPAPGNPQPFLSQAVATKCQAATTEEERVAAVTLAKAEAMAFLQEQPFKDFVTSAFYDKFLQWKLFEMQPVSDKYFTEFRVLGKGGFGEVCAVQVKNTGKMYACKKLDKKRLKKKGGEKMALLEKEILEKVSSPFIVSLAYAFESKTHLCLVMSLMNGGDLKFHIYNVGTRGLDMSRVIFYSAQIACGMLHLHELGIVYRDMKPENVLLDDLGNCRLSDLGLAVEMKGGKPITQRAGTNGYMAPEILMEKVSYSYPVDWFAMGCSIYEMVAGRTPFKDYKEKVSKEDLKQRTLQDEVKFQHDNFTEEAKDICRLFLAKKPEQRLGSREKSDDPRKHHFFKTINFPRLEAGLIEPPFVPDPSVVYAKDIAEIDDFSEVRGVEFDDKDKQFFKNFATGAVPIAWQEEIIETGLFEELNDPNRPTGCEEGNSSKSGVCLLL
The test can be described thus: Inhibition of GRK7 (unknown origin) at 10 uM after 120 mins P33 radiolabeled kinase activity assay.

In test [4] the target is Mitogen-activated protein kinase 14 (Homo sapiens) (UniProt Q16539). The test can be described thus: Inhibition of P38alpha (unknown origin) at 10 uM after 120 mins P33 radiolabeled kinase activity assay.
Mitogen-activated protein kinase 14 (Homo sapiens), sequence (Q16539 whole entry): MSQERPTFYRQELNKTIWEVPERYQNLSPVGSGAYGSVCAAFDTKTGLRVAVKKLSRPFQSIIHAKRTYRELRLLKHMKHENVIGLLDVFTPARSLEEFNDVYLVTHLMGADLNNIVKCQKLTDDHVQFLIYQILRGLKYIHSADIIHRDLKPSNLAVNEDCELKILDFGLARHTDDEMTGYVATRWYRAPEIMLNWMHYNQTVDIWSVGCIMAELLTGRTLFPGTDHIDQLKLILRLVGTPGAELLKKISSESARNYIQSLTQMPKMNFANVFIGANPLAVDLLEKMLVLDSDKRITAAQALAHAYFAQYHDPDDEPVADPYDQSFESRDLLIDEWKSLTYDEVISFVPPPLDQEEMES
The target of test [5] is Ribosomal protein S6 kinase beta-1 (Homo sapiens) (UniProt P23443). Description: Inhibition of RPS6KB1 (unknown origin) at 10 uM after 120 mins P33 radiolabeled kinase activity assay.
Ribosomal protein S6 kinase beta-1 (Homo sapiens), sequence (P23443 whole entry, looked up): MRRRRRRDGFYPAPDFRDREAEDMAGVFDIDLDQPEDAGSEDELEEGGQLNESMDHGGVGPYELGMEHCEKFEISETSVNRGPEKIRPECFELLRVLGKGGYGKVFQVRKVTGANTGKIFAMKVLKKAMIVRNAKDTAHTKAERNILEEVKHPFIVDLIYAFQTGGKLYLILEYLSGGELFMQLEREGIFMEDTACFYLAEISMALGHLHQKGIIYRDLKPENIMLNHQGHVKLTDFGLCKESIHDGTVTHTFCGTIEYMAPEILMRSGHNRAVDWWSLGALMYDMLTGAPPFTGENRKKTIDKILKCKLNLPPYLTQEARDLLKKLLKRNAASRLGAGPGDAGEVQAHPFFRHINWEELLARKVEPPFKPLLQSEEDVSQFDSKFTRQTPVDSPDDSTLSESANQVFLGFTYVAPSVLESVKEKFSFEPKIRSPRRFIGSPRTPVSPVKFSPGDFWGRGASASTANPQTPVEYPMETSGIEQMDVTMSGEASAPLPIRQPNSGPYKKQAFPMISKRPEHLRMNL
For test [6], the target named is Serine/threonine-protein kinase PAK 6 (Homo sapiens) (UniProt Q9NQU5). Description: Inhibition of PAK6 (unknown origin) at 10 uM after 120 mins P33 radiolabeled kinase activity assay.
Serine/threonine-protein kinase PAK 6 (Homo sapiens), sequence (Q9NQU5 whole entry, looked up): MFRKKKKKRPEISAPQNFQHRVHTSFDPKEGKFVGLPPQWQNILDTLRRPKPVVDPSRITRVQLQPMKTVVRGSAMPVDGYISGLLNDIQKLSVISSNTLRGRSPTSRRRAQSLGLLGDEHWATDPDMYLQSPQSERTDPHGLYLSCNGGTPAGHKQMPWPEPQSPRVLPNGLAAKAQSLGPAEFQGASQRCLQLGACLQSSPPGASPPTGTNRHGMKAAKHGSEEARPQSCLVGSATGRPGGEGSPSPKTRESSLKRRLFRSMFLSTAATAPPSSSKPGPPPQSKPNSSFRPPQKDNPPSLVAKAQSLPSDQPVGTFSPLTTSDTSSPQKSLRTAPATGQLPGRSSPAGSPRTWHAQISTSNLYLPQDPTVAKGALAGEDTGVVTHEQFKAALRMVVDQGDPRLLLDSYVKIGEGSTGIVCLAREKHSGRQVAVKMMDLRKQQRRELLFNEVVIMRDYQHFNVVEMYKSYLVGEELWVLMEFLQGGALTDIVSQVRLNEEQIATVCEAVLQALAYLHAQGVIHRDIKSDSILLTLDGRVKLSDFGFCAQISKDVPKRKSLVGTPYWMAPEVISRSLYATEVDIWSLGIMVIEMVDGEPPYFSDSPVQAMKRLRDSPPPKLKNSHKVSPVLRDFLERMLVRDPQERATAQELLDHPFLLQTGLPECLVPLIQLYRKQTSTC
The target in test [7] is Serine/threonine-protein kinase MARK2 (Homo sapiens) (UniProt Q7KZI7). Description: Inhibition of MARK2 (unknown origin) at 10 uM after 120 mins P33 radiolabeled kinase activity assay.
The target in test [8] is Proto-oncogene tyrosine-protein kinase ROS (Homo sapiens) (UniProt P08922). The test can be described thus: Inhibition of ROS (unknown origin) at 10 uM after 120 mins P33 radiolabeled kinase activity assay.
Test [9] deals with Ribosomal protein S6 kinase alpha-4 (Homo sapiens) (UniProt O75676). The test can be described thus: Inhibition of MSK2 (unknown origin) at 10 uM after 120 mins P33 radiolabeled kinase activity assay.
Test [10] addresses Ribosomal protein S6 kinase alpha-6 (Homo sapiens) (UniProt Q9UK32). Description: Inhibition of RSK4 (unknown origin) at 10 uM after 120 mins P33 radiolabeled kinase activity assay.
The target of test [11] is Serine/threonine-protein kinase 38-like (Homo sapiens) (UniProt Q9Y2H1). The test can be described thus: Inhibition of STK38L (unknown origin) at 10 uM after 120 mins P33 radiolabeled kinase activity assay.
Serine/threonine-protein kinase 38-like (Homo sapiens), sequence (Q9Y2H1 2-464 limits assumed): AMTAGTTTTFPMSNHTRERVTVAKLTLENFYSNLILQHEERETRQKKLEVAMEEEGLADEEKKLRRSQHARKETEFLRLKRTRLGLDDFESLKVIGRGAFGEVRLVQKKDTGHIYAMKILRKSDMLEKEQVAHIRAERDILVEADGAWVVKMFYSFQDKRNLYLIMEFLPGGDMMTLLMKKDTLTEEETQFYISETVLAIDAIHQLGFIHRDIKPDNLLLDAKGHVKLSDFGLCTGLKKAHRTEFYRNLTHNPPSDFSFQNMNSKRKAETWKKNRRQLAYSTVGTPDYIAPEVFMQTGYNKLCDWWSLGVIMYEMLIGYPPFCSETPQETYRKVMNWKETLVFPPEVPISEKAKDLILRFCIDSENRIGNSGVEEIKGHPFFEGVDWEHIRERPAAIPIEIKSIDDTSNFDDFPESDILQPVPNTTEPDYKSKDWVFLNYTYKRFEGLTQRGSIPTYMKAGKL
For test [12], the target named is RAC-alpha serine/threonine-protein kinase (Homo sapiens) (UniProt P31749). Description: Inhibition of AKT1 (unknown origin) at 10 uM after 120 mins P33 radiolabeled kinase activity assay.
RAC-alpha serine/threonine-protein kinase (Homo sapiens), sequence (P31749 whole entry): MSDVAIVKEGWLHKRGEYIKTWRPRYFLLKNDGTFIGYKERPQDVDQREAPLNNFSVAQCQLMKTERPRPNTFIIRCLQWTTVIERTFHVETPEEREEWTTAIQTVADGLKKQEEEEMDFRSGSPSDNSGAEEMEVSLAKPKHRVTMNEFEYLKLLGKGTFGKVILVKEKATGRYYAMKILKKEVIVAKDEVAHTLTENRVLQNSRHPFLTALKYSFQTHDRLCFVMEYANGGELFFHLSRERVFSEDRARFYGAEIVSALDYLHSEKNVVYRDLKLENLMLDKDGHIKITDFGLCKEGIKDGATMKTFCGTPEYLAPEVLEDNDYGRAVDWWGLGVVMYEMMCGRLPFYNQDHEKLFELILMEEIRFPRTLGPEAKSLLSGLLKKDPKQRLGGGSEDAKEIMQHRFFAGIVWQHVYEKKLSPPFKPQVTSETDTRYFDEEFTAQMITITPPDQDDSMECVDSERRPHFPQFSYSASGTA
For test [13], the target named is Serine/threonine-protein kinase WNK3 (Homo sapiens) (UniProt Q9BYP7). The test can be described thus: Inhibition of WNK3 (unknown origin) at 10 uM after 120 mins P33 radiolabeled kinase activity assay.
The target of test [14] is Activin receptor type-1-like (Homo sapiens) (UniProt P37023). Description: Inhibition of ALK1 (unknown origin) at 10 uM after 120 mins P33 radiolabeled kinase activity assay.
Activin receptor type-1-like (Homo sapiens), sequence (P37023 whole entry): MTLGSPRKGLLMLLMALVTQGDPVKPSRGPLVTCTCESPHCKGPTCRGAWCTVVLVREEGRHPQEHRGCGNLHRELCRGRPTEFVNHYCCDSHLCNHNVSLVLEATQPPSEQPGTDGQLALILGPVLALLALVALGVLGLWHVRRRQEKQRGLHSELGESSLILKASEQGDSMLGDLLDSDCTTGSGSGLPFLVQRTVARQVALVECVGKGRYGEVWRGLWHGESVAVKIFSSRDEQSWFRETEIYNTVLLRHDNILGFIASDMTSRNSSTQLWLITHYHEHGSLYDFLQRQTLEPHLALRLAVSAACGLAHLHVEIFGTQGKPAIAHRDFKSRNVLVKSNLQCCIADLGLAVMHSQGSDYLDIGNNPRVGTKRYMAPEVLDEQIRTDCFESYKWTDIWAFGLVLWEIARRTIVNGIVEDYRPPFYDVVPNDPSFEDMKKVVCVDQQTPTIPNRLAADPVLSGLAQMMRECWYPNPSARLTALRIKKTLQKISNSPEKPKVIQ
The target of test [15] is T3, Serine/threonine-protein kinase Chk1 (Homo sapiens) (UniProt O14757).
T3 sequence (whole entry): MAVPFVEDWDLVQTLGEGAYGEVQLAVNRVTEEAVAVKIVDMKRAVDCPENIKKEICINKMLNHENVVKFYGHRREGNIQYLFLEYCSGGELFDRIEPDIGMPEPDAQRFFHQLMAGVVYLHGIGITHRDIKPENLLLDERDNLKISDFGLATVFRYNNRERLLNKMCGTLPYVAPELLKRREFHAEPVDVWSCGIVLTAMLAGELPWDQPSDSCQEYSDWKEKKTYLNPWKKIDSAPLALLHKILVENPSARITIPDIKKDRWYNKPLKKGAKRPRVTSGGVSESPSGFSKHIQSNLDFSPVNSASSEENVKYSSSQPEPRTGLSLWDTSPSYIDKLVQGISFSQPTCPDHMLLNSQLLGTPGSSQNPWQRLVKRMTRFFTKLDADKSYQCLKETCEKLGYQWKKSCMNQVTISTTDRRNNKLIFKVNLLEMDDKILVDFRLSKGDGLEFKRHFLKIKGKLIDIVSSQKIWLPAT
Description: Inhibition of CHK1 (unknown origin) at 10 uM after 120 mins P33 radiolabeled kinase activity assay.

Test [16] deals with Casein kinase I isoform alpha (Homo sapiens) (UniProt P48729). The test can be described thus: Inhibition of CK1alpha1 (unknown origin) at 10 uM after 120 mins P33 radiolabeled kinase activity assay.
Casein kinase I isoform alpha (Homo sapiens), sequence (P48729 2-337 limits assumed): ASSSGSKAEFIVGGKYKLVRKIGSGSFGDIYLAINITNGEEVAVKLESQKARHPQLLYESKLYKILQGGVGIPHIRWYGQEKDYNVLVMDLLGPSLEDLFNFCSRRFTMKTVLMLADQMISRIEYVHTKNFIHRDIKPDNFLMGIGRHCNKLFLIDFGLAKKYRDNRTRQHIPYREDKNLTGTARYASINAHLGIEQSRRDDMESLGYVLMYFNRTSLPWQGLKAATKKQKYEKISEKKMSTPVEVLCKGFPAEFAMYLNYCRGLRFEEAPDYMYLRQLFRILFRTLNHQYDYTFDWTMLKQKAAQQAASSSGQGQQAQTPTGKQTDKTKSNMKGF
The target of test [17] is Casein kinase I isoform delta (Homo sapiens) (UniProt P48730). Description: Inhibition of CK1delta (unknown origin) at 10 uM after 120 mins P33 radiolabeled kinase activity assay.
Casein kinase I isoform delta (Homo sapiens), sequence (P48730 whole entry, looked up, canonical isoform): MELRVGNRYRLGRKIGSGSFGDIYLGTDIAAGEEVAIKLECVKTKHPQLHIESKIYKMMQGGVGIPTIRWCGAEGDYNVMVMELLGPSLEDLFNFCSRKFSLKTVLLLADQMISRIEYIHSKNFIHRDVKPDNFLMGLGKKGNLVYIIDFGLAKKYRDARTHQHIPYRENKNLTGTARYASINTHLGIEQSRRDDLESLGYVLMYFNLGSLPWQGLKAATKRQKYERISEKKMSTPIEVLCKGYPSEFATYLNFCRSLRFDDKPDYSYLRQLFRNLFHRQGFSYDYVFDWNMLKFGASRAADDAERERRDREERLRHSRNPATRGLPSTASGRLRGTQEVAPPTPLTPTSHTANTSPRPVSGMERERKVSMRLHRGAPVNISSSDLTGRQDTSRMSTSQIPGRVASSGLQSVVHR
Test [18] deals with Casein kinase II subunit alpha (Homo sapiens) (UniProt P68400). Description: Inhibition of CK2alpha (unknown origin) at 10 uM after 120 mins P33 radiolabeled kinase activity assay.
Casein kinase II subunit alpha (Homo sapiens), sequence (P68400 whole entry, looked up): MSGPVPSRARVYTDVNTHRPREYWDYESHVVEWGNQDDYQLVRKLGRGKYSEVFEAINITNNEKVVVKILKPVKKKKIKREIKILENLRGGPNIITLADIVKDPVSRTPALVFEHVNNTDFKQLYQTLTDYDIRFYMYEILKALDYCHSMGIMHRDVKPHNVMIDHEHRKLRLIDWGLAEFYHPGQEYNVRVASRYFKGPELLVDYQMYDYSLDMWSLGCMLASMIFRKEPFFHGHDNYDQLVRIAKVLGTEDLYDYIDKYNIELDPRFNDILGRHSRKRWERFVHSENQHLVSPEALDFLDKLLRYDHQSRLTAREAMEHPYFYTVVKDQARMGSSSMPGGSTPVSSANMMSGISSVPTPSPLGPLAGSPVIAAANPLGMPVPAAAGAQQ

Ribosomal protein S6 kinase alpha-6 (Homo sapiens), sequence (Q9UK32 whole entry): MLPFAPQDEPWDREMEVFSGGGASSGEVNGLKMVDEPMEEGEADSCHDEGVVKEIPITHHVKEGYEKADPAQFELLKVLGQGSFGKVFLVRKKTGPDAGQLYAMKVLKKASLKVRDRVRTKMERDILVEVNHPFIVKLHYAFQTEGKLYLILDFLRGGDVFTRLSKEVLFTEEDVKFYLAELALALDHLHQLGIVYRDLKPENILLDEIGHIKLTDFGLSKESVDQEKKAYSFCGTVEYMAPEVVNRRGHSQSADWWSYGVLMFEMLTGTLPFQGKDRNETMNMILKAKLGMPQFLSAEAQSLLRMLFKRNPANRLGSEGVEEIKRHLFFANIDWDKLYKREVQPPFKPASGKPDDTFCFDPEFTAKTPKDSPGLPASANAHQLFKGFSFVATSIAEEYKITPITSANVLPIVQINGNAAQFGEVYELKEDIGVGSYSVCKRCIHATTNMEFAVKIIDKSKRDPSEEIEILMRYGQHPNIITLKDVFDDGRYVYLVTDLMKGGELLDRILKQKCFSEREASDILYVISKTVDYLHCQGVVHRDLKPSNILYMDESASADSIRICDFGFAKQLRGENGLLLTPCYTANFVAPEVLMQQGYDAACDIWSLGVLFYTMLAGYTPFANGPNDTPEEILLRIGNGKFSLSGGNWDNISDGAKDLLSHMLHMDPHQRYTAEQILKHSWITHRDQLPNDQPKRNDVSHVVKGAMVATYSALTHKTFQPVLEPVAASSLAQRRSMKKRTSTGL

The term inhibition denotes the relative decrease from the control value, in per cent. Take `CS(=O)(=O)c1cccc(Nc2nccc(-c3sc(N4CCOCC4)nc3-c3cccc(NS(=O)(=O)c4c(F)cccc4F)c3)n2)c1`: the inhibition in test [1] was 68%; in test [2], 6.04%; in [3], 25.3%; in test [4] it was 18.8%; in test [5] it was 48.5%; in test [6] it was 17.4%. Moreover, the inhibition was 10.9% in test [7]; 63.8% in test [8]; 19.5% in test [9]; 66.9% in test [10]; 22.4% in test [11]; 3.36% in test [12]. For the same molecule, the inhibition in test [13] was 25.9%; in test [14], 96.2%; in test [15] it was 10.9%; in test [16], 22.6%; in test [17] it was 20.5%; in [18], 19.7%.

In the case of `CC(C)(C)c1cc(NC(=O)Nc2ccc(Oc3ccncc3)cc2)no1`, the inhibition in [1] came out at 97.3%; in test [2], 7.39%; in test [3], 2.1%; in [4] it was 98.9%; in test [5] it was 84.2%; in test [6], 8.88%. In addition, the inhibition in test [7] is 3.84%; in test [8], 88.7%; in test [9] it was 70.5%; in [10] it was 4.26%; in test [11], 33.7%; in test [12] it was 4.64%. Further, the inhibition in test [13] is 1.93%; in test [14], 3.54%; in [15] it was -0.09%; in test [16], 19.9%; in test [17] it was 13.5%; in test [18] it was 20%.

In the case of `COCCNC(=O)c1ccc2c(c1)nc(-c1cnc(-c3ccc(Cl)cc3)[nH]1)n2CCOC`, the inhibition is 19.6% in test [1]; 11.4% in test [2]; 2.32% in [3]; 62.3% in [4]; 6.1% in test [5]; 3.33% in test [6]. The inhibition in test [7] worked out at 2.7%; in test [8], 27.9%; in test [9], 4.4%; in [10], 1.08%; in [11] it was 7.36%; in test [12] it was 4.96%. For the same molecule, the inhibition in test [13] was -2.44%; in [14], 28.2%; in [15] it was 15.3%; in test [16], 46.8%; in test [17] it was 77.8%; in [18], 8.6%.
